These results are taken from patent publication US8637681B2, “Pyrrolyl substituted dihydroindol-2-one derivatives, preparation methods and uses thereof” (Qilu Pharmaceutical Co., Ltd., priority 2010, dated 2014).

SMILES strings stand for the structures. Bounds are passed on as bounds.

Data set [1] concerns arterial ring angiogenesis in rats. The data set can be described thus: Inhibitory actions on arterial ring angiogenesis in rats. It counts as cell-based. Conditions: Rattus norvegicus, area covered by micrangiums vs control well, read-out: Inhibitory rate (%); for inhibition at 0.2 µg/mL: 0.2 μg/ml; for inhibition at 1 µg/mL: 1 μg/ml; for inhibition at 5 µg/mL: 5 μg/ml. As to the method: This experiment was conducted by referring to the method described by R. F. Nicosia et al (Nicosia, R. F., et al. Am J Pathol., 1997, 151, 1379-1386). Rats were executed by cervical dislocation. The thoracic aorta was carefully separated, and placed in a container with physiological saline. The excess tissues were carefully cut off. The blood vessels were cut with a pair of ophthalmic scissors to form 1 mm thick vascular ring slices. To a pre-cooled 96-well cell culture plate, one separated vascular ring was placed in the center of each well. 70 μl of pre-molten Matrigel was carefully added to cover the vascular ring, which was incubated at 37° C. for 1 h so as to solidify it. […] The sample was placed in incubator for conventional culture, and each compound was tested at least in two repeated wells, and each test was repeated twice. […] The fresh culture medium was replaced every 3 days, and the drug was changed at the same time. The survival status of vascular rings was observed under microscope, and pictures were taken at the same time. Image Pro Plus software was used to calculate the area covered by micrangiums. The average inhibition rate was calculated by using the formula: inhibition rate (%)=(area of control well−area of drug well)/area of control well×100%.

Data set [2] can be described thus: Cytotoxicity test (SRB), A549. The conditions noted are these: human, A549 non-small cell lung cancer cells. It counts as cell-based. On the procedure: (§1) Cytotoxicity of the compounds of the present invention was tested with human non-small cell lung cancer cells A549, human cervical cancer Hela cells, human skin cancer cells A431. The test was performed by referring to the method described by Rusnak et al (Rusnak D. W., et al., Cell Prolif., 2007, 40, 580-94).
(§2) In Dulbecco's Modified Eagle Medium (DMEM) comprising 10% fetal bovine serum, 2 mM glutamine and non-essential amino acids, cells were cultured at 37° C. in 5% CO2 cell incubator. Trypsin/ethylenediamine tetraacetic acid (EDTA) were used to harvest cells in cell culture bottle. The cells were added to a 96-well cell culture plate, 4000/well (0.1 ml medium), adhering wall overnight, 0.1 ml of the diluted solution of the compounds to be tested was added, the final concentration of DMSO was 0.25%. The cell culture plate was incubated at 37° C., 5% CO2 conditions for 72 h. The change of cellular morphology was observed under microscope, and then 50 μl of 50% (mass/volume) trichloroacetic acid (TCA) was added to each well to fix cells. The final concentration of TCA was 10%. It stood for 5 min, than was placed in 4° C. refrigerator for 1 h, the wells of the culture plate were washed with deionized water for 5 times to remove TCA, drained, dried in air until no wet trace was observed. 100 μl of 0.4% (mass/volume) SRB was added to each well, stood at room temperature for 10 min. The liquid in each well was discarded, and then the wells were washed with 1% acetic acid for 5 times, dried in air, extracted with 150 μl of 10 mM Tris base (trihydroxymethylaminomethane, pH 10.5). The absorption at a wavelength of 540 nm was measured. The IC50 (μM) of the compound was calculated using Logit method.

Data set [3] can be described thus: Cytotoxicity test (SRB), Hela. It counts as cell-based. Conditions: human, Hela cervical cancer cells. As to the method:
Cytotoxicity of the compounds of the present invention was tested with human non-small cell lung cancer cells A549, human cervical cancer Hela cells, human skin cancer cells A431. The test was performed by referring to the method described by Rusnak et al (Rusnak D. W., et al., Cell Prolif., 2007, 40, 580-94). […] Trypsin/ethylenediamine tetraacetic acid (EDTA) were used to harvest cells in cell culture bottle. The cells were added to a 96-well cell culture plate, 4000/well (0.1 ml medium), adhering wall overnight, 0.1 ml of the diluted solution of the compounds to be tested was added, the final concentration of DMSO was 0.25%. The cell culture plate was incubated at 37° C., 5% CO2 conditions for 72 h. […] The absorption at a wavelength of 540 nm was measured. The IC50 (μM) of the compound was calculated using Logit method.

Data set [4] is described as follows: Cytotoxicity test (SRB), A431. It counts as cell-based. Conditions: human, A431 skin cancer cells. As to the method:
as §1, §2

The test system of data set [5] is human colon cancer HT 29 transplanted tumor. The data set can be described thus: Nude mice transplanted tumor test. Conditions: for Dead animal number / inhibition in vivo at 80 mg/kg / d21 Wave ± SD (average bodyweight of nude mice) / d21 Vave ± SD (average tumor volume) / d21 RTV ± SD (relative tumor volume): 80 mg/kg intragastrically each day for 20 days; for Dead animal number: dead/total animals; for inhibition in vivo at 80 mg/kg: Mus musculus, HT-29, po, 504 h, (1−T/C)×100%, read-out: Tumor inhibition rate d21 (%); for inhibition in vivo at 80 mg/kg / d21 Wave ± SD (average bodyweight of nude mice) / d21 Vave ± SD (average tumor volume) / d21 RTV ± SD (relative tumor volume): d21; for d0 Wave ± SD (average bodyweight of nude mice): d0, at grouping before administration (baseline); for d21 Vave ± SD (average tumor volume): HT 29 in nude mice; for d21 RTV ± SD (relative tumor volume): RTV=Vt/V0. On the set-up: key to d21 Vave ± SD (average tumor volume): tumor volume TV = ½×a×b² (a, b = major, minor diameter), in mm³. It counts as in vivo, female Balb/cA nude mice. On the procedure:
The nude mice transplanted tumor test used female Balb/cA nude mice, and tumor strains were human colon cancer HT 29 strains.
Under sterile condition, eugonic tumor tissues stage were cut into pieces of about 1.5 mm^3, and inoculated at right axillary fossa of the nude mice. The transplanted tumor diameter was measured by vernier caliper, and the animals were randomly grouped after the tumors grew to about 120 mm^3. The positive control group and the compounds group in a dosage of 80 mg/kg were administered intragastrically each day for consecutive 20 days. The negative control group was given equivalent amount of injection water containing 0.1% Tween 80. Tumor diameters and the bodyweight of mice were measured 2-3 times every week. The evaluation indexes observed in the test include relative tumor proliferation rate, bodyweight and general states. The formulation for calculating tumor volume (TV) is: TV=½×a×b^2, wherein a, b represent major diameter and minor diameter of tumor; Relative tumor volume (RTV) was calculated according the results of measurement by the following formula: RTV=Vt/V0, wherein V0 is tumor volume measured when dividing groups for administration, and Vt is tumor volume measured after each administration.

For `CCN1CCN(CC(=O)Nc2c(C)[nH]c(/C=C3\C(=O)Nc4ccc(F)cc43)c2C)CC1` [Compound 18, N-{5-[5-fluoro-2-oxo-1,2-dihydro-indol-(3Z)-ylidenemethyl]-2,4-dimethyl-1H-pyrrol-3-yl}-2-(4-ethylpiperazin-1-yl)acetamide], in data set [1], the inhibition at 0.2 µg/mL came out at 99%, the inhibition at 1 µg/mL was found to be 100% and the inhibition at 5 µg/mL amounted to 100%. In addition, the IC50 (usually the concentration needed to halve the response being measured) at 72 h in data set [2] was greater than 30 µM. For the same compound, in data set [3], the half-inhibitory concentration (IC50) at 72 h was 4.15 µM. In data set [4], this compound returned an IC50 at 72 h greater than 30 µM. In addition, in data set [5], the Dead animal number is recorded as 0/6, the inhibition in vivo at 80 mg/kg turned out to be 90.1%, the “d0 Wave ± SD (average bodyweight of nude mice)” value (“d0 Wave ± SD” for short) was found to be 19.1 ± 0.48 and the “d21 Wave ± SD (average bodyweight of nude mice)” value (“d21 Wave ± SD” below) was 18.9 ± 0.69. Also, in data set [5], the “d21 RTV ± SD (relative tumor volume)” value turned out to be 0.73 ± 0.45. In addition, the “d21 Vave ± SD (average tumor volume)” value in data set [5] (in mm³ (unit assumed)) amounted to 86.2 ± 45.3.

For the compound `CCN(CC)CC(=O)Nc1c(C)[nH]c(/C=C2\C(=O)Nc3ccc(Cl)cc32)c1C` [Compound 21, N-{5-[5-chloro-2-oxo-1,2-dihydro-indol-(3Z)-ylidenemethyl]-2,4-dimethyl-1H-pyrrol-3-yl}-2-(N,N-diethylamino)acetamide], in data set [1], the inhibition at 0.2 µg/mL came to 95%, the inhibition at 1 µg/mL stood at 100% and the inhibition at 5 µg/mL came out at 100%. In data set [2], this compound yielded an IC50 at 72 h greater than 30 µM. This compound also came in with an IC50 at 72 h in data set [3] greater than 30 µM. The IC50 at 72 h in data set [4] is greater than 30 µM. Besides, in data set [5], the Dead animal number is given as 0/6, the inhibition in vivo at 80 mg/kg came out at 89%, the “d0 Wave ± SD” value was found to be 18.9 ± 0.47 and the “d21 Wave ± SD” value is 19.3 ± 0.76. In addition, the “d21 RTV ± SD (relative tumor volume)” value in data set [5] was found to be 0.79 ± 0.63. For the same compound, the “Activity of inhibiting HT-29 transplanted tumor in vivo (in words)” value in data set [5] (80 mg/kg, compared with positive control Sunitinib) is “inhibitory activity comparable to the positive control Sunitinib”. The “d21 Vave ± SD (average tumor volume)” value in data set [5] (in mm³ (unit assumed)) is 94.3 ± 37.2.

With `Cc1[nH]c(/C=C2\C(=O)Nc3ccc(F)cc32)c(C)c1NC(=O)CN(C)C` [Compound 22, N-{5-[5-fluoro-2-oxo-1,2-dihydro-indol-(3Z)-ylidenemethyl]-2,4-dimethyl-1H-pyrrol-3-yl}-2-(N,N-dimethylamino)acetamide], in data set [1], the inhibition at 0.2 µg/mL stood at 90%, the inhibition at 1 µg/mL was found to be 100% and the inhibition at 5 µg/mL stood at 100%. The compound also had a 50% inhibitory concentration (IC50) at 72 h in data set [2] greater than 30 µM. Besides, the concentration for half-maximal inhibition (IC50) at 72 h in data set [3] was greater than 30 µM. This compound also showed an IC50 at 72 h in data set [4] greater than 30 µM. Further, in data set [5], the Dead animal number is 0/6, the inhibition in vivo at 80 mg/kg was 88.1%, the “d0 Wave ± SD” value is recorded as 19.7 ± 0.38 and the “d21 Wave ± SD” value was 20.1 ± 0.35. Further, in data set [5], the “d21 RTV ± SD (relative tumor volume)” value is 0.86 ± 0.54. The “d21 Vave ± SD (average tumor volume)” value in data set [5] (in mm³ (unit assumed)) amounted to 104.6 ± 43.6.

For the compound `CCN(CC)CC(=O)Nc1c(C)[nH]c(/C=C2\C(=O)Nc3cc(C(F)(F)F)ccc32)c1C` [Compound 24, N-{5-[6-trifluoromethyl-2-oxo-1,2-dihydro-indol-(3Z)-ylidenemethyl]-2,4-dimethyl-1H-pyrrol-3-yl}-2-(N,N-diethylamino)acetamide], in data set [1], the inhibition at 0.2 µg/mL is 98%, the inhibition at 1 µg/mL came out at 100% and the inhibition at 5 µg/mL was determined as 100%. Also, the IC50 at 72 h in data set [2] is greater than 30 µM. Also, the half-inhibitory concentration (IC50) at 72 h in data set [3] was determined as 3.56 µM. Besides, in data set [4], the midpoint of inhibition, the IC50 at 72 h, lay at 8.89 µM. For the same compound, in data set [5], the Dead animal number is listed as 0/6, the inhibition in vivo at 80 mg/kg turned out to be 64.9%, the “d0 Wave ± SD” value was 18.6 ± 0.36 and the “d21 Wave ± SD” value stood at 17.9 ± 0.58. The “d21 RTV ± SD (relative tumor volume)” value in data set [5] is listed as 2.52 ± 0.23. Further, the “d21 Vave ± SD (average tumor volume)” value in data set [5] (in mm³ (unit assumed)) stood at 298.5 ± 55.8.

`CCN(CC)CC(=O)Nc1c(C)[nH]c(/C=C2\C(=O)Nc3ccc([N+](=O)[O-])cc32)c1C` [Compound 26, N-{5-[5-nitro-2-oxo-1,2-dihydro-indol-(3Z)-ylidenemethyl]-2,4-dimethyl-1H-pyrrol-3-yl}-2-(N,N-diethylamino)acetamide]: in data set [1], the inhibition at 0.2 µg/mL amounted to 93%, the inhibition at 1 µg/mL is 100% and the inhibition at 5 µg/mL is 100%. Further, the IC50 at 72 h in data set [2] was greater than 30 µM. This compound showed a half-maximal inhibitory concentration (IC50) at 72 h in data set [3] of 4.62 µM. This compound also gave an IC50 at 72 h in data set [4] greater than 30 µM. Moreover, in data set [5], the Dead animal number is recorded as 0/6, the inhibition in vivo at 80 mg/kg was 64.8%, the “d0 Wave ± SD” value is on record as 19.3 ± 0.55 and the “d21 Wave ± SD” value stood at 20.5 ± 0.35. In data set [5], the “d21 Vave ± SD (average tumor volume)” value is 305.6 ± 46.7 and the “d21 RTV ± SD (relative tumor volume)” value turned out to be 2.53 ± 0.43.

Take `CCN(CC)CC(=O)Nc1c(C)[nH]c(/C=C2\C(=O)Nc3ccc(NC(C)=O)cc32)c1C` [Compound 28, N-{5-[5-acetylamino-2-oxo-1,2-dihydro-indol-(3Z)-ylidenemethyl]-2,4-dimethyl-1H-pyrrol-3-yl}-2-(N,N-diethylamino)acetamide]: in data set [1], the inhibition at 0.2 µg/mL came to 90%, the inhibition at 1 µg/mL was 100% and the inhibition at 5 µg/mL was 100%. Further, the half-inhibitory concentration (IC50) at 72 h in data set [2] is greater than 30 µM. Besides, the concentration for half-maximal inhibition (IC50) at 72 h in data set [3] was greater than 30 µM. In data set [4], this compound gave a concentration for half-maximal inhibition (IC50) at 72 h greater than 30 µM. In data set [5], the Dead animal number is listed as 0/6, the inhibition in vivo at 80 mg/kg stood at 77%, the “d0 Wave ± SD” value stood at 18.8 ± 1.01 and the “d21 Wave ± SD” value is 19.5 ± 0.86. Further, the “d21 RTV ± SD (relative tumor volume)” value in data set [5] was 1.65 ± 0.62. Further, the “d21 Vave ± SD (average tumor volume)” value in data set [5] (in mm³ (unit assumed)) was 204.3 ± 52.7.
